Broadly, the viability, T/C is the result in the treated group divided by that in the control group, in per cent. For orientation: IC50 means the concentration at which inhibition is half-maximal.

The assay deals with 945468-187-T-J2-PDC spheroids viability. Nature of the assay: Anticancer human tumor 945468-187-T-J2-PDC patient-derived rectal carcinoma cell line growth inhibition [PI3K]. Particulars: spheroids with HUVEC and MSC; for viability, T/C: stronger effect = lower value. The source says: Combinatorial screen of targeted agents with the PI3K inhibitors inavolisib, alpelisib, duvelisib, and copanlisib in multi-cell type tumor spheroids
A high-throughput screen of multi-cell type tumor spheroids was designed to identify active combinations of targeted small molecules and PI3K pathway inhibitors. Complex spheroids include a stromal component modeled by human endothelial cells (HUVEC) and fibroblasts modeled by human mesenchymal stem cells (MSCs). The concentration ranges selected for each drug and investigational agent were based upon clinically achievable concentrations if the clinical Cmax of the agent was known.
Compounds. The drugs and investigational agents: inavolisib (NSC800729), alpelisib (NSC765974), duvelisib (NSC772469), copanlisib (NSC816437), ipatasertib (NSC767898), afuresertib (NSC778305), talazoparib (NSC767125), sapanisertib (NSC764658), selumetinib (NSC741078), tovorafenib (DAY101, NSC766906), vemurafenib (NSC761431), ravoxertinib (NSC781343), sotorasib (NSC818433), MRTX1133 (NSC 836407), abemaciclib (NSC 768073), palbociclib (NSC758247), venetoclax (NSC 766270), SY5609 (NSC837396), enzalutamide (NSC755605), and darolutamide (NSC825331), were obtained from the National Cancer Institute (NCI) Developmental Therapeutics Program Chemical Repository. The FDA-approved anticancer drug set is available from the NCI Developmental Therapeutics Program. […] The stock solutions were prepared in dimethyl sulfoxide (DMSO, Sigma-Aldrich, St. Louis, MO, cat. D2650) at 800-fold the tested concentration and stored at -70 degrees C prior to their use. All drugs and investigational agents were tested over a range starting from a high concentration at or near the clinical Cmax and decreasing in half-log increments. If the clinical Cmax for an agent had not been determined, the highest concentration tested was 10 microM.
Cell Culture. All cells were maintained in an incubator at 37 degrees C and 5% CO2 with 95% humidity. The PDC lines were cultured according to standard operating procedures established by the NCI PDMR (https://pdmr.cancer.gov/sops/default.htm). All PDCs were thawed and cultured in Matrigel-coated flasks prepared with a working solution of 1X Ham's F-12 nutrient mix, without supplementation (Invitrogen, Waltham, MA, cat. 11765054), 100 U/mL penicillin-streptomycin (Invitrogen, cat. 15140122), and 2.5% Matrigel (Corning Inc., Corning, NY, cat. 354248) for the first three passages. The 354836-022-R-J1-PDC, 475296-252-R-J1-PDC, and 997726-040-R-J2-PDC lines were cultured in 6A media, which includes advanced DMEM/F-12 (Thermo Fisher Scientific, cat. 12634028), 10 mM HEPES (Thermo Fisher Scientific, cat. 15630080), 1X GlutaMAX supplement (Thermo Fisher Scientific, cat. 35050061), 0.1 mg/mL primocin (InvivoGen, San Diego, CA, cat. ant-pm-2), 10% defined fetal bovine serum, heat inactivated (HyClone Laboratories Inc., Logan, UT, cat. SH30070.03HI), 50% L-WRN conditioned media (ATCC, cat. CRL-3276), 1.25 mM N-Acetyl-L-cysteine (Sigma-Aldrich, cat. A9165), 10 mM nicotinamide (Sigma-Aldrich, cat. N0636), 1X B-27 supplement (Thermo Fisher Scientific, cat. 17504044), 1X N-2 supplement (Thermo Fisher Scientific, cat. 17502048), and 10 microM Y-27632 dihydrochloride (Tocris Bioscience, Bristol, United Kingdom, cat. 1254). The 624824-186-R-J2-PDC line was cultured in 6C/Colon 1B media, which includes all 6A media components plus 50 ng/mL human EGF recombinant protein (Thermo Fisher Scientific, cat. PHG0311). […]

Where [1] appears, read: compound alone, run of 04/24/2023.
Where [2] appears, read: compound alone, run of 04/25/2023.

SMILES strings stand for the structures. “And” between values parts separate entries of the source, which are not always exact repeats. Equal values may be shown once.
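Also: spheroids exposed to compounds for seven days before reading.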

Consider `C#Cc1c(F)ccc2cc(O)cc(-c3ncc4c(N5CC6CCC(C5)N6)nc(OCC56CCCN5CC(F)C6)nc4c3F)c12` (stereo not given), for which the viability, T/C is, setting by setting: (compound 0.0316 µM) 109% [middle of 4 runs]; (compound 0.316 µM) 106% (2×) and 90.2% and 116%. For the setting “curve of compound”, the IC50 was > 10 µM.
With `C=CC(=O)N1CCN(c2nc(=O)n(-c3c(C)ccnc3C(C)C)c3nc(-c4c(O)cccc4F)c(F)cc23)C(C)C1` (stereo not given), the viability, T/C reads like this: (compound 0.1 µM) 104% [middle of 4 runs]; (compound 0.316 µM) 95.7% [middle of 4 runs]; (compound 3.16 µM) 104% (2×) and 113% and 89.9%; (compound 10 µM) 107% [middle of 4 runs]. Also, the IC50 (curve of compound) is > 10 µM.
With `CC(=O)c1c(C)c2cnc(Nc3ccc(N4CCNCC4)cn3)nc2n(C2CCCC2)c1=O`, the viability, T/C reads like this: (compound 0.000316 µM) 105% [middle of 4 runs]; (compound 0.00316 µM) 90.6% [middle of 4 runs]; (compound 0.01 µM) 104% [middle of 4 runs]. For the same molecule, the IC50 (curve of compound) was > 0.1 µM.
`CC(C)NCC(C(=O)N1CCN(c2ncnc3c2C(C)CC3O)CC1)c1ccc(Cl)cc1` (stereo not given): the viability, T/C (compound 0.1 µM) was 91.8% [middle of 4 runs]; the viability, T/C (compound 0.316 µM) was 90.2% [middle of 4 runs]; the viability, T/C (compound 1 µM) was 103% [middle of 4 runs]; the viability, T/C (compound 3.16 µM) is 99.7% [middle of 4 runs]. Further, the 50% inhibitory concentration (IC50) (curve of compound) was > 10 µM.
On to `CC(C)n1nc(-c2ccc3oc(N)nc3c2)c2c(N)ncnc21`, for which the viability, T/C is 92.3% [middle of 4 runs] (compound 0.001 µM), 94.4% [middle of 4 runs] (compound 0.0316 µM) and 71.9% [middle of 4 runs] (compound 0.1 µM). For the setting “curve of compound”, the IC50 was > 0.1 µM.
For `CC(Cn1ccc(-c2ccc(C#N)c(Cl)c2)n1)NC(=O)c1cc(C(C)O)[nH]n1` (stereo not given), the viability, T/C (compound 3.16 µM) was 93.7% [middle of 4 runs]. The IC50 (curve of compound) is > 10 µM.
Take `CC(Nc1ccc2c(c1)OCCn1cc(N3C(=O)OCC3C(F)F)nc1-2)C(N)=O` (stereo not given): the viability, T/C was 99% [middle of 8 runs] (compound 0.01 µM), 106% [middle of 8 runs] (compound 0.1 µM), 91.7% [middle of 8 runs] (compound 0.316 µM) and 76.9% [middle of 8 runs] (compound 1 µM). Moreover, the IC50 under setting [1] is > 1 µM.
In the case of `CC(Nc1ncnc2nc[nH]c12)c1cc2cccc(Cl)c2c(=O)n1-c1ccccc1` (stereo not given), the viability, T/C is 91.9% [middle of 8 runs] (compound 0.1 µM), 96.3% [middle of 8 runs] (compound 0.316 µM) and 103% [middle of 8 runs] (compound 10 µM). For the same molecule, the IC50 under setting [2] is > 10 µM.
Take `CC1(C)CCC(CN2CCN(c3ccc(C(=O)NS(=O)(=O)c4ccc(NCC5CCOCC5)c([N+](=O)[O-])c4)c(Oc4cnc5[nH]ccc5c4)c3)CC2)=C(c2ccc(Cl)cc2)C1`: the viability, T/C (compound 0.316 µM) was 94.6% [middle of 4 runs]; the viability, T/C (compound 1 µM) is 103% [middle of 4 runs]; the viability, T/C (compound 3.16 µM) was 96.3% [middle of 4 runs]. The IC50 (curve of compound) is > 10 µM.
Take `CC1(C)CCC(Nc2ncc(C(F)(F)F)c(-c3c[nH]c4c(P(C)(C)=O)c(C#N)ccc34)n2)CN1` (stereo not given): the viability, T/C by setting is: (compound 0.0316 µM) 94.2% (2×) and 113% and 89.1%; (compound 0.1 µM) 96.6% [middle of 4 runs]; (compound 3.16 µM) 43% [middle of 4 runs].
For the molecule `CCCS(=O)(=O)Nc1ccc(F)c(C(=O)c2c[nH]c3ncc(-c4ccc(Cl)cc4)cc23)c1F`, the viability, T/C runs as follows: (compound 0.0316 µM) 104% [middle of 4 runs]; (compound 0.1 µM) 88.8% [middle of 4 runs]; (compound 0.316 µM) 94% [middle of 4 runs]; (compound 1 µM) 99.4% [middle of 4 runs]; (compound 10 µM) 5.55% [middle of 4 runs]. Moreover, under “curve of compound”, the IC50 is 5.05 µM [middle of 4 runs].
Consider `CCN1CCN(Cc2ccc(Nc3ncc(F)c(-c4cc(F)c5nc(C)n(C(C)C)c5c4)n3)nc2)CC1`, for which the viability, T/C by setting is: (compound 0.00316 µM) 98.9% [middle of 4 runs]; (compound 0.316 µM) 98.3% [middle of 4 runs]; (compound 1 µM) 78% [middle of 4 runs]. Moreover, the IC50 (curve of compound) was > 1 µM.
As for `CNC(=O)c1ccc(N2C(=S)N(c3ccc(C#N)c(C(F)(F)F)c3)C(=O)C2(C)C)cc1F`, the viability, T/C reads like this: (compound 0.0316 µM) 92.1% [middle of 4 runs]; (compound 0.1 µM) 106% (2×) and 93.2% and 121%; (compound 0.316 µM) 89% [middle of 4 runs]; (compound 1 µM) 85.3% [middle of 4 runs]; (compound 3.16 µM) 91.6% [middle of 4 runs]. Further, the IC50 (curve of compound) is > 10 µM.
For `COc1c(OCCCN2CCOCC2)ccc2c3n(c(=NC(=O)c4cnc(N)nc4)nc12)CCN3`, the viability, T/C by setting is: (compound 0.00316 µM) 102% [middle of 8 runs]; (compound 0.316 µM) 40.8% [middle of 8 runs]; (compound 1 µM) 22.5% [middle of 8 runs]. Besides, under setting [2], the IC50 is 250 nM [middle of 7 runs].
For the molecule `C[C@@H](NC(=O)c1ncnc(N)c1Cl)c1ncc(C(=O)Nc2cc(C(F)(F)F)c(Cl)cn2)s1`, the viability, T/C was 115% [middle of 4 runs] (compound 0.0316 µM), 95.1% [middle of 4 runs] (compound 0.1 µM), 107% [middle of 4 runs] (compound 0.316 µM) and 94.3% [middle of 4 runs] (compound 10 µM). Further, where the note is “curve of compound”, the IC50 was > 10 µM.
On to `Cc1nc(NC(=O)N2CCCC2C(N)=O)sc1-c1ccnc(C(C)(C)C(F)(F)F)c1` (stereo not given), for which the viability, T/C is 95.8% [middle of 8 runs] (compound 0.0316 µM) and 97.5% [middle of 8 runs] (compound 0.1 µM). The IC50 under setting [1] is > 10 µM.
As for `Cn1cnc2c(F)c(Nc3ccc(Br)cc3Cl)c(C(=O)NOCCO)cc21`, the viability, T/C runs as follows: (compound 0.949 µM) 83.3% [middle of 4 runs]; (compound 3 µM) 79.8% [middle of 4 runs]. In addition, the IC50 (curve of compound) was > 3 µM.
With `Cn1ncc(Cl)c1-c1cc(C(=O)NC(CN)Cc2cccc(F)c2)sc1Cl` (stereo not given), the viability, T/C is, setting by setting: (compound 0.1 µM) 90.9% [middle of 4 runs]; (compound 1 µM) 84.6% [middle of 4 runs]; (compound 3.16 µM) 76.5% [middle of 4 runs]. The IC50 (curve of compound) was > 10 µM.
Turning to `Cn1nccc1Nc1nccc(-c2ccn(C(CO)c3ccc(Cl)c(F)c3)c(=O)c2)n1` (stereo not given), the viability, T/C by setting is: (compound 0.1 µM) 101% [middle of 4 runs]; (compound 0.316 µM) 101% (2×) and 108% and 94.5%; (compound 3.16 µM) 94.1% [middle of 4 runs]; (compound 10 µM) 78.3% [middle of 4 runs]. For the same molecule, the IC50 (curve of compound) is > 10 µM.
As for `Cn1ncnc1[C@H]1c2n[nH]c(=O)c3cc(F)cc(c23)N[C@@H]1c1ccc(F)cc1`, the viability, T/C by setting is: (compound 0.000316 µM) 105% [middle of 4 runs]; (compound 0.00316 µM) 93.9% [middle of 4 runs]; (compound 0.01 µM) 88.9% [middle of 4 runs]; (compound 0.0316 µM) 110% (2×) and 104% and 93.3%; (compound 0.1 µM) 104% [middle of 4 runs]. Further, where the note is “curve of compound”, the IC50 is > 0.1 µM.

Values taken from PubChem BioAssay AID1963972 (Molecular Pharmacology Branch, DTP, NCI, 2024).
